The text below walks through data of US20100016371A1, “Indole Compounds” (Glaxo Group Limited, priority 2006, published 2010).

One experiment addresses T1, human EP1 receptor (Homo sapiens, UniProt P34995).
T1 construct: expressed in transfected cells; host or cells: CHO-K1 cells, pCIN vector
T1 sequence (P34995 1-402): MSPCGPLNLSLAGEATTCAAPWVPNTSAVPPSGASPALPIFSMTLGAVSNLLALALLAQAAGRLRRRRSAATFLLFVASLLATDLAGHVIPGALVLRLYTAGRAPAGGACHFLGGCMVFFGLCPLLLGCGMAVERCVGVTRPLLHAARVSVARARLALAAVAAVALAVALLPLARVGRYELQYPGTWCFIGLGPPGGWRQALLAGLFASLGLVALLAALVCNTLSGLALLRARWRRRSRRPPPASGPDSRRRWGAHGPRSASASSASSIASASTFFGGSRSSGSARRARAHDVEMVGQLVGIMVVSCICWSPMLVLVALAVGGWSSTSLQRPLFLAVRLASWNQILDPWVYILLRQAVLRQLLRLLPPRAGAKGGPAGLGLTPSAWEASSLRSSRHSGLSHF
Briefly: human EP1 calcium mobilisation assay (FLIPR, CHO-K1 cells). In kind it is cell-based. The note with it: antagonism of PGE2-induced calcium mobilisation, CHO-K1 cells expressing EP1; averages of a number of experiments; read-out: functional pKi (converted). On the procedure: (§1) Biological Activity at EP1 and EP3 Receptors
(§2) Briefly, the antagonist properties of compounds are assessed by their ability to inhibit the mobilisation of intracellular calcium ([Ca^2+]i) in response to activation of EP1 or EP3 receptors by the natural agonist hormone prostaglandin E2 (PGE2). Increasing concentrations of antagonist reduce the amount of calcium that a given concentration of PGE2 can mobilise. The net effect is to displace the PGE2 concentration-effect curve to higher concentrations of PGE2. The amount of calcium produced is assessed using a calcium-sensitive fluorescent dye such as Fluo-4, AM and a suitable instrument such as a Fluorimetric Imaging Plate Reader (FLIPR). Increasing amounts of [Ca^2+]i produced by receptor activation increase the amount of fluorescence produced by the dye and give rise to an increasing signal. The signal may be detected using the FLIPR instrument and the data generated may be analysed with suitable curve-fitting software.
The human EP1 or EP3 calcium mobilisation assay (hereafter referred to as ‘the calcium assay’) utilises Chinese hamster ovary-K1 (CHO-K1) cells into which a stable (pCIN; BioTechniques 20(1996): 102-110) vector containing either EP1 or EP3 cDNA has previously been transfected. Cells are cultured in suitable flasks containing culture medium such as DMEM:F-12 supplemented with 10% v/v foetal calf serum, 2 mM L-glutamine, 0.25 mg/ml geneticin, 100 μM flurbiprofen and 10 μg/ml puromycin.
For assay, cells are harvested using a proprietary reagent that dislodges cells such as Versene. Cells are re-suspended in a suitable quantity of fresh culture media for introduction into a 384-well plate. Following incubation for 24 hours at 37° C. the culture media is replaced with a medium containing Fluo-4 and the detergent pluronic acid, and a further incubation takes place. Concentrations of compounds are then added to the plate in order to construct concentration-effect curves. This may be performed on the FLIPR in order to assess the agonist properties of the compounds. Concentrations of PGE2 are then added to the plate in order to assess the antagonist properties of the compounds.
The data so generated may be analysed by means of a computerised curve-fitting routine. The concentration of compound that elicits a half-maximal inhibition of the calcium mobilisation induced by PGE2 (pIC50) may then be estimated.
A general note: Calcium assays in cells follow changes in intracellular calcium, usually with a dye or a luminescent sensor.

Another experiment deals with T2, human EP3 receptor (Homo sapiens, UniProt P43115).
T2 construct: expressed in transfected cells; host or cells: CHO-K1 cells, pCIN vector
T2 sequence (P43115 1-390): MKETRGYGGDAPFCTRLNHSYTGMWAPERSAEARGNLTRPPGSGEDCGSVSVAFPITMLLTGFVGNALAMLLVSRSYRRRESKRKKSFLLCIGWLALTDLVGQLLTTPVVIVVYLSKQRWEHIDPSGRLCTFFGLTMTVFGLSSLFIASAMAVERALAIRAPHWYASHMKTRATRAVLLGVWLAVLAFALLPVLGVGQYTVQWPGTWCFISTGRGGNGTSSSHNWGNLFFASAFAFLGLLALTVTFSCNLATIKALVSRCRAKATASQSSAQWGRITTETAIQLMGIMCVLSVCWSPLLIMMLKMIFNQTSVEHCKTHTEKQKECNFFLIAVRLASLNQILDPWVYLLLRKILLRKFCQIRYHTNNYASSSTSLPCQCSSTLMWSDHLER
Kind of experiment: human EP3 calcium mobilisation assay (FLIPR, CHO-K1 cells). The format is cell-based. The conditions noted are these: antagonism of PGE2-induced calcium mobilisation, CHO-K1 cells expressing EP3; averages of a number of experiments; read-out: functional pKi (converted). The protocol: as §1
as §2, with “software. […]” for “software.”
For assay, cells are harvested using a proprietary reagent that dislodges cells such as Versene. Cells are re-suspended in a suitable quantity of fresh culture media for introduction into a 384-well plate. […]
The data so generated may be analysed by means of a computerised curve-fitting routine. […]

Structures are written as SMILES. Where only a bound is given, the exact number is not on record here.

`CCc1cn(-c2nc(C(=O)O)cs2)c2cc(Cl)ccc12` [Example 20, 2-(6-Chloro-3-ethyl-1H-indol-1-yl)-1,3-thiazole-4-carboxylic acid]: the Ki is at most 100 nM at human EP1 receptor and at least 2000 nM at human EP3 receptor.
